The values that follow come from paper doi:10.1101/2025.01.30.635627v1 (biorxiv, 2025).

One test deals with T1, GAK (Homo sapiens, UniProt O14976).
T1 sequence (O14976 2-1311): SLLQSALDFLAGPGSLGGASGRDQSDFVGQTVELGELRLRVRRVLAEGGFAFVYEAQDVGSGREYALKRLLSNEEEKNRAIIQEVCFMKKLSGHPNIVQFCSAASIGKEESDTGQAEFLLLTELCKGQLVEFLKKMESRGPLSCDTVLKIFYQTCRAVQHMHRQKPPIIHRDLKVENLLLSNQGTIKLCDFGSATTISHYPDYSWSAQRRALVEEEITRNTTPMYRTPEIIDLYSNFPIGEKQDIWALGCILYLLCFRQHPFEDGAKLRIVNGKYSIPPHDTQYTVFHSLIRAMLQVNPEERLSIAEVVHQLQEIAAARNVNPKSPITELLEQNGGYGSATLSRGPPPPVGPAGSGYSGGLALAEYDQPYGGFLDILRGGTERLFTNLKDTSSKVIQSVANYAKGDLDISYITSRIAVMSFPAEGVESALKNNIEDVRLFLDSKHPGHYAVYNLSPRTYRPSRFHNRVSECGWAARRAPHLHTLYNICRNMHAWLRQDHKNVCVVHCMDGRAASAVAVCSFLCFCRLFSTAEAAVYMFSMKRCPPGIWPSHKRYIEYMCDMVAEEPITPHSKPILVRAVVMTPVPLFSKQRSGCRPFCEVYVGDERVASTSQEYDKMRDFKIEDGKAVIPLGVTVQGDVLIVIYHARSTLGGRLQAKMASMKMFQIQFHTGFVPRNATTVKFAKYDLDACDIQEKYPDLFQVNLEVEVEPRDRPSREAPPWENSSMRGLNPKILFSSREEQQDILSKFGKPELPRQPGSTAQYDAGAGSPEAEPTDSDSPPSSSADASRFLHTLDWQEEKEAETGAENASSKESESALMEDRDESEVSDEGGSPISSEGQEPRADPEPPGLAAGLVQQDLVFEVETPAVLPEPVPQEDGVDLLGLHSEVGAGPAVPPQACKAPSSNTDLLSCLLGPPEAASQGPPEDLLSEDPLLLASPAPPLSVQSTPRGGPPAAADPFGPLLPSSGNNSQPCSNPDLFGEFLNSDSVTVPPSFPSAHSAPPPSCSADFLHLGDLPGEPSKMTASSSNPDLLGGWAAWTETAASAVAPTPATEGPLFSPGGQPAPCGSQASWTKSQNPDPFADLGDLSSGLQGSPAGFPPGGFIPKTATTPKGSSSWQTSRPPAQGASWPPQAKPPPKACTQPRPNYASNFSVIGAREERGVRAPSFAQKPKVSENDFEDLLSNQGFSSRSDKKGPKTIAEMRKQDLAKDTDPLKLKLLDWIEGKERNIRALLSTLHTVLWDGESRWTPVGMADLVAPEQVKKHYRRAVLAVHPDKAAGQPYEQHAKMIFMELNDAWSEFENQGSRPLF
Nature of the test: Kinobead selectivity profiling. The class given is biochemical. The conditions noted are these: read-out: K ^app; apparent value; off-target of ERK inhibitor.

Another test addresses AAK1 (Homo sapiens, UniProt Q2M2I8). As to the kind of experiment: Kinobead selectivity profiling. The conditions noted are these: read-out: K ^app; apparent value; off-target of ERK inhibitor. It counts as biochemical.
Another test concerns the target T2, EEF1A2 (Homo sapiens, UniProt Q05639).
T2 sequence (Q05639 2-463): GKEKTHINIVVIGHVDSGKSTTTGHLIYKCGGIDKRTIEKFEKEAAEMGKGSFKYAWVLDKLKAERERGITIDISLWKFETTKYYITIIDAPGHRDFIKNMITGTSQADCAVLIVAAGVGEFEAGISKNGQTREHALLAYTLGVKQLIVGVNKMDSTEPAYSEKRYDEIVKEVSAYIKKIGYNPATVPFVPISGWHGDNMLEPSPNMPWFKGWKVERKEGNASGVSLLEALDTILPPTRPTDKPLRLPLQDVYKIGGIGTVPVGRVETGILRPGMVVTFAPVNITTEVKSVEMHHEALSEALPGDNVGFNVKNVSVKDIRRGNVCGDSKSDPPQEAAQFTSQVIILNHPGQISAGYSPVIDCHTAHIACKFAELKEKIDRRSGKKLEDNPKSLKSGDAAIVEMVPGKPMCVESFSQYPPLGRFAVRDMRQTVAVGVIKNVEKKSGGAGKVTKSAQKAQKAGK
Nature of the test: decryptC competitive reactive cysteine profiling in intact cells, LC-MS/MS. The class given is cell-based. The settings on record: covalent; C31; […] h incubation; range over MiaPaCa-2, NCI-H23 and ASPC1 cells.

AAK1, sequence (Q2M2I8 whole entry): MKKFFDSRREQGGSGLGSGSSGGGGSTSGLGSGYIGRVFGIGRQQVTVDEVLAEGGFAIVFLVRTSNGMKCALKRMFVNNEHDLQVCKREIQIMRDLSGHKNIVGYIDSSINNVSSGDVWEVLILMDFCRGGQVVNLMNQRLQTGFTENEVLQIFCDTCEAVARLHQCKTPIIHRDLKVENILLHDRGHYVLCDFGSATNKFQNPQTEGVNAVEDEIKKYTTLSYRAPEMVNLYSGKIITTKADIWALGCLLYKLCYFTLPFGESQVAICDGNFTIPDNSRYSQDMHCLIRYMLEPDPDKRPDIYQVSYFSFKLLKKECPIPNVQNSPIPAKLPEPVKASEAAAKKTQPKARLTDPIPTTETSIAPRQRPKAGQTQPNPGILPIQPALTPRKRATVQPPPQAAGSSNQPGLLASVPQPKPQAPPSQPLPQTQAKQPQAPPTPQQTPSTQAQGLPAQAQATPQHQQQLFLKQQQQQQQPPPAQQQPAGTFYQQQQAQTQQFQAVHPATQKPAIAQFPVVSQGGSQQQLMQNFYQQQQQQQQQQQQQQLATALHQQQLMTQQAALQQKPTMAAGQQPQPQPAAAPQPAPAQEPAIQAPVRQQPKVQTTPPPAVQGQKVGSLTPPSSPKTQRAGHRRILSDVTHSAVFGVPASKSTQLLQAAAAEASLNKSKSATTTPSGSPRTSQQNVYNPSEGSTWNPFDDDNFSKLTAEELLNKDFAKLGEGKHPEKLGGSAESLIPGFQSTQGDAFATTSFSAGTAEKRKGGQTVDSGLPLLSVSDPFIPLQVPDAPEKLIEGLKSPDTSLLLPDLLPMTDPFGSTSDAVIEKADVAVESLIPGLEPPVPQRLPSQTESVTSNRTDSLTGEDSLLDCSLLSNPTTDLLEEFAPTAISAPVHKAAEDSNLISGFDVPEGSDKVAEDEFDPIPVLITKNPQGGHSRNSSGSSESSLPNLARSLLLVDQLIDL

As for `Cn1nccc1Nc1nccc(-c2cc3c(s2)C(C)(C)N(CCN2CCOCC2)C3=O)n1` [Temuterkib], the figures for the Kd at GAK and on AAK1 were 155 nM and 11 nM, respectively.
By EC50 is commonly meant the concentration that produces a half-maximal response. A high value points to a less potent agent. For `C=C(F)C(=O)N1CCN(c2nc(OC[C@@H]3CCCN3C)nc3c2CCN(c2cccc4cccc(Cl)c24)C3)C[C@@H]1CC#N` [Adagrasib], at EEF1A2, the EC50 lay in the range of 1000 to 3000 nM.
